Laboratory results: US7803793B2, “Heterocyclic derived metalloprotease inhibitors” (Janssen Pharmaceutica NV, priority 2006, dated 2010)
Read-outs that look alike come from different tables or passages of the source.

How the values were obtained:
MMP-2 = target: T1, MMP-2 (Homo sapiens, UniProt P08253); assay: MMP enzymatic assay (Trupoint peptide), MMP-2; assay type: biochemical
T1 construct: Human MMP-2 full length (aa 1-660)
T1 sequence (P08253 30-660): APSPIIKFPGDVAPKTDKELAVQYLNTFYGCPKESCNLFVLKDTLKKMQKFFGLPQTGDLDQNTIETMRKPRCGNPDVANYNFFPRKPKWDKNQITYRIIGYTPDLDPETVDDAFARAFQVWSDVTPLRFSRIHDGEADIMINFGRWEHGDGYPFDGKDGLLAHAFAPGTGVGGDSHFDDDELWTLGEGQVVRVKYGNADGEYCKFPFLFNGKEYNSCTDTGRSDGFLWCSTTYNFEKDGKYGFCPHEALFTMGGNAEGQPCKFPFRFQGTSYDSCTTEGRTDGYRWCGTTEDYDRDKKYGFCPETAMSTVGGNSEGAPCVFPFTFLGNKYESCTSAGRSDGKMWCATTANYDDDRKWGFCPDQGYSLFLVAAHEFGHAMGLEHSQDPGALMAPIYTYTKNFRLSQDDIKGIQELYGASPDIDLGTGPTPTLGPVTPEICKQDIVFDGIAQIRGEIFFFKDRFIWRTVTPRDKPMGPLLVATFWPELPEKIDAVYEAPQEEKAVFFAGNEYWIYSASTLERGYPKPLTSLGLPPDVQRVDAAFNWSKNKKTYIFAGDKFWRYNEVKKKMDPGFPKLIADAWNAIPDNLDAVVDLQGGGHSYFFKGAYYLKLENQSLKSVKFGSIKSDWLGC
Method: [formula] • 1) Prepare appropriate 1×MMP assay buffer from 10× stock. […] Need to prepare a 2.5× concentration stock (2.5 μM) to achieve this concentration in 50 μl. Dilute compound to 2.5 mM in 100% DMSO (a 1:40 dilution), then dilute the 2.5 mM compound to 2.5 μM (1:1000) into 1× assay buffer. Make 1 ml 2.5 μM compound in assay buffer. • 4) Fill the rows B through P of a 384-well plate with assay buffer+0.1% DMSO. • 5) Add 30 ul of the 2.5 μM compound in assay buffer to the top row of the plate, doing each compound in triplicate. The plate setup should be as follows, using GM6001 as plate reference compound:
• 6) Serially dilute 10 μl down the plate to achieve 1:3 dilutions in subsequent wells. After each dilution, change pipette tips to avoid compound carryover. Discard the remaining 10 μl after diluting into the final row. • 7) Prepare enzyme dilutions at 2.5× of final desired concentration (see below). Will need 10 ml enzyme solution per plate. Add enzyme to plate, 20 μl per well. Incubate 1 hr.
• 8) Dilute the 500 μM Trupoint peptide 1:1000 into assay buffer to achieve a 5× working stock of 500 nM. Prepare 5 ml total per plate. Add 10 ul of substrate to each well to achieve a final concentration of 100 nM in well. Also prepare background subtraction wells by adding 10 μl 5× substrate to 40 μl assay buffer per well, typically do ˜32 wells. • 9) Incubate assay at room temperature for 15 min. Read in plate reader.
(§1) Analysis Specifications • Calculate average background value from substrate/assay buffer wells • Subtract this from entire plate • Calculate average of DMSO wells for each enzyme. This is the positive control, 100% value. • For each well, calculate percent of control by dividing well value by the average DMSO value obtained above. • Paste percent of control values into Graphpad Prism 4.0.

MMP-9 = target: T2, MMP-9 (Homo sapiens, UniProt P14780); assay: MMP enzymatic assay (Trupoint peptide), MMP-9; assay type: biochemical
T2 construct: Human MMP-9 catalytic domain (aa 107-446)
Method: [formula] • 1) Prepare appropriate 1×MMP assay buffer from 10× stock. […] The plate setup should be as follows, using GM6001 as plate reference compound:
• 6) Serially dilute 10 μl down the plate to achieve 1:3 dilutions in subsequent wells. After each dilution, change pipette tips to avoid compound carryover. […] Will need 10 ml enzyme solution per plate. Add enzyme to plate, 20 μl per well. Incubate 1 hr.
Prepare 5 ml total per plate. Add 10 ul of substrate to each well to achieve a final concentration of 100 nM in well. […] Read in plate reader.
as §1

T2 sequence (P14780 107-446): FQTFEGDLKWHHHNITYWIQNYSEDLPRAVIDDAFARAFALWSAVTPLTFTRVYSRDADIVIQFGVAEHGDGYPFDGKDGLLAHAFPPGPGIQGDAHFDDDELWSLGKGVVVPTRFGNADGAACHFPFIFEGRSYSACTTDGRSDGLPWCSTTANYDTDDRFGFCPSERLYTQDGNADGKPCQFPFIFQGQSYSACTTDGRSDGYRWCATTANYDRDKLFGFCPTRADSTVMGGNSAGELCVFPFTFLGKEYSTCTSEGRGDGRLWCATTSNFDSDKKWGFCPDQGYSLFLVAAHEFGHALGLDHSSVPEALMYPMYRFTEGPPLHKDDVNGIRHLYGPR

Compound: 1-Hydroxy-3-(4′-trifluoromethoxy-biphenyl-4-sulfonyl)-azepan-2-one [Compound 85]
- IC50 (MMP-2; read-out: MMP-2 nM IC50): > 1000 nM
- IC50 (MMP-9): > 1000 nM

Compound: 4-(4-Chloro-phenoxy)-N-(1-hydroxy-2-oxo-2,3,4,7-tetrahydro-1H-azepin-3-(R)-yl)-benzenesulfonamide [Compound 1]
- IC50 (MMP-2; read-out: MMP-2 nM IC50): 0.81 nM
- IC50 (MMP-9): 0.78 nM

Compound: O=C1[C@H](NS(=O)(=O)c2ccc(-c3ccc(Cl)cc3)cc2)CC=CCN1O [Compound 2, 4′-Chloro-biphenyl-4-sulfonic acid (1-hydroxy-2-oxo-2,3,4,7-tetrahydro-1H-azepin-3-(R)-yl)-amide]
- IC50 (MMP-2): 68.6 nM
- IC50 (MMP-9): 1140 nM

Compound: O=C1[C@H](NS(=O)(=O)c2ccc(Oc3ccccc3)cc2)CC=CCN1O [Compound 3, N-(1-Hydroxy-2-oxo-2,3,4,7-tetrahydro-1H-azepin-3-(R)-yl)-4-phenoxy-benzenesulfonamide]
- IC50 (MMP-2): 1.07 nM
- IC50 (MMP-9): 1.76 nM

Compound: O=C1[C@H](NS(=O)(=O)c2ccc(Oc3ccc(C(F)(F)F)cc3)cc2)CC=CCN1O [Compound 5, N-(1-Hydroxy-2-oxo-2,3,4,7-tetrahydro-H-azepin-3-(R)-yl)-4-(4-trifluoro-methyl-phenoxy)-benzenesulfonamide]
- IC50 (MMP-2): 1.79 nM
- IC50 (MMP-9): 2.04 nM

Compound: O=C1[C@H](NS(=O)(=O)c2ccc(Oc3ccncc3)cc2)CC=CCN1O [Compound 6, N-(1-Hydroxy-2-oxo-2,3,4,7-tetrahydro-1H-azepin-3-(R)-yl)-4-(pyridin-4-yloxy)-benzenesulfonamide]
- IC50 (MMP-2): 2.67 nM
- IC50 (MMP-9): 15.9 nM

Compound: O=C1[C@H](NS(=O)(=O)c2ccc(Oc3ncc(C(F)(F)F)cc3Cl)cc2)CC=CCN1O [Compound 7, 4-(3-Chloro-5-trifluoromethyl-pyridin-2-yloxy)-N-(1-hydroxy-2-oxo-2,3,4,7-tetrahydro-1H-azepin-3-(R)-yl)-benzenesulfonamide]
- IC50 (MMP-2): > 1000 nM
- IC50 (MMP-9): > 1000 nM

Compound: O=C1[C@H](NS(=O)(=O)c2ccc(Oc3ccccn3)cc2)CC=CCN1O [Compound 8, N-(1-Hydroxy-2-oxo-2,3,4,7-tetrahydro-1H-azepin-3-(R)-yl)-4-(pyridin-2-yloxy)-benzenesulfonamide]
- IC50 (MMP-2): 15.1 nM
- IC50 (MMP-9): 22.9 nM

Compound: O=C1[C@H](NS(=O)(=O)c2ccc(N3CCC(c4ccccc4)CC3)cc2)CC=CCN1O [Compound 9, N-(1-Hydroxy-2-oxo-2,3,4,7-tetrahydro-1H-azepin-3-(R)-yl)-4-(4-phenyl-piperidin-1-yl)-benzenesulfonamide]
- IC50 (MMP-2): > 1000 nM
- IC50 (MMP-9): > 1000 nM

Compound: O=C1[C@H](NS(=O)(=O)c2ccc(N3CCN(c4ccccc4)CC3)cc2)CC=CCN1O [Compound 10, N-(1-Hydroxy-2-oxo-2,3,4,7-tetrahydro-1H-azepin-3-(R)-yl)-4-(4-phenyl-piperazin-1-yl)-benzenesulfonamide]
- IC50 (MMP-2): > 1000 nM
- IC50 (MMP-9): > 1000 nM

Compound: O=C1[C@H](N(CCN2CCOCC2)S(=O)(=O)c2ccc(Oc3ccc(Cl)cc3)cc2)CC=CCN1O [Compound 11, 4-(4-Chloro-phenoxy)-N-(1-hydroxy-2-oxo-2,3,4,7-tetrahydro-1H-azepin-3-(R)-yl)-N-(2-morpholin-4-yl-ethyl)-benzenesulfonamide]
- IC50 (MMP-2): 0.31 nM
- IC50 (MMP-9): 0.2 nM

Compound: CN([C@@H]1CC=CCN(O)C1=O)S(=O)(=O)c1ccc(Oc2ccc(Cl)cc2)cc1 [Compound 12, 4-(4-Chloro-phenoxy)-N-(1-hydroxy-2-oxo-2,3,4,7-tetrahydro-1H-azepin-3-(R)-yl)-N-methyl-benzenesulfonamide]
- IC50 (MMP-2): 1.99 nM
- IC50 (MMP-9): 1.32 nM

Compound: O=C1[C@H](N(CCN2CCCCC2)S(=O)(=O)c2ccc(Oc3ccc(Cl)cc3)cc2)CC=CCN1O [Compound 13, 4-(4-Chloro-phenoxy)-N-(1-hydroxy-2-oxo-2,3,4,7-tetrahydro-1H-azepin-3-(R)-yl)-N-(2-piperidin-1-yl-ethyl)-benzenesulfonamide]
- IC50 (MMP-2): 0.55 nM
- IC50 (MMP-9): 0.21 nM

Compound: CN1CCN(CCN([C@@H]2CC=CCN(O)C2=O)S(=O)(=O)c2ccc(Oc3ccc(Cl)cc3)cc2)CC1 [Compound 14, 4-(4-Chloro-phenoxy)-N-(1-hydroxy-2-oxo-2,3,4,7-tetrahydro-1H-azepin-3-(R)-yl)-N-[2-(4-methyl-piperazin-1-yl)-ethyl]-benzenesulfonamide]
- IC50 (MMP-2): 0.49 nM
- IC50 (MMP-9): 0.2 nM

Compound: O=C1[C@H](NS(=O)(=O)Cc2ccc(Cl)cc2)CC=CCN1O [Compound 15, (4-Chloro-phenyl)-N-(1-hydroxy-2-oxo-2,3,4,7-tetrahydro-1H-azepin-3-(R)-yl)-methanesulfonamide]
- IC50 (MMP-2): > 1000 nM
- IC50 (MMP-9): > 1000 nM

Compound: O=C1[C@H](NS(=O)(=O)c2ccc(Br)s2)CC=CCN1O [Compound 16, 5-Bromo-thiophene-2-sulfonic acid (1-hydroxy-2-oxo-2,3,4,7-tetrahydro-1H-azepin-3-(R)-yl)-amide]
- IC50 (MMP-2): 43 nM
- IC50 (MMP-9): 28.4 nM

Compound: COc1ccc(-c2ccc(S(=O)(=O)N[C@@H]3CC=CCN(O)C3=O)s2)cc1 [Compound 17, 5-(4-Methoxy-phenyl)-thiophene-2-sulfonic acid (1-hydroxy-2-oxo-2,3,4,7-tetrahydro-1H-azepin-3-(R)-yl)-amide]
- IC50 (MMP-2): 3.9 nM
- IC50 (MMP-9): 10.7 nM

Compound: O=C1[C@H](N(CCN2CCOCC2)S(=O)(=O)c2ccc(Br)s2)CC=CCN1O [Compound 18, (R)-5-Bromo-thiophene-2-sulfonic acid (1-hydroxy-2-oxo-2,3,4,7-tetrahydro-1H-azepin-3-yl)-(2-morpholin-4-yl-ethyl)-amide]
- IC50 (MMP-2): 48.1 nM
- IC50 (MMP-9): 14.3 nM

Compound: O=C1[C@H](NS(=O)(=O)c2ccc(Oc3ccc(Cl)cc3)cc2)CC=C(CN2CCOCC2)CN1O [Compound 19, 4-(4-Chloro-phenoxy)-N-(1-hydroxy-6-morpholin-4-ylmethyl-2-oxo-2,3,4,7-tetrahydro-1H-azepin-3-(R)-yl)-benzenesulfonamide]
- IC50 (MMP-2): 0.39 nM
- IC50 (MMP-9): 0.77 nM

Compound: CC1=CC[C@@H](NS(=O)(=O)c2ccc(Oc3ccc(Cl)cc3)cc2)C(=O)N(O)C1 [Compound 20, (R)-4-(4-Chloro-phenoxy)-N-(1-hydroxy-6-methyl-2-oxo-2,3,4,7-tetrahydro-1H-azepin-3-yl)-benzenesulfonamide]
- IC50 (MMP-2): 0.72 nM
- IC50 (MMP-9): 0.68 nM

Compound: CN(c1cccn(O)c1=O)S(=O)(=O)c1ccc(Oc2ccc(C(F)(F)F)cc2)cc1 [Compound 30, N-(1-Hydroxy-2-oxo-1,2-dihydro-pyridin-3-yl)-N-methyl-4-(4-trifluoromethyl-phenoxy)-benzenesulfonamide]
- IC50 (MMP-9): 32.7 nM

Compound: Cc1ccn(O)c(=O)c1N(C)S(=O)(=O)c1ccc(Oc2ccc(Cl)cc2)cc1 [Compound 31, 4-(4-Chloro-phenoxy)-N-(1-hydroxy-4-methyl-2-oxo-1,2-dihydro-pyridin-3-yl)-N-methyl-benzenesulfonamide]
- IC50 (MMP-2; read-out: MMP-2 nM IC50): 66.2 nM

Compound: CN(c1cc(Br)cn(O)c1=O)S(=O)(=O)c1ccc(Oc2ccc(Cl)cc2)cc1 [Compound 32, N-(5-Bromo-1-hydroxy-2-oxo-1,2-dihydro-pyridin-3-yl)-4-(4-chloro-phenoxy)-N-methyl-benzenesulfonamide]
- IC50 (MMP-2; read-out: MMP-2 nM IC50): 662 nM

Compound: O=C1[C@H](NS(=O)(=O)c2ccc(Oc3ccc(Cl)cc3)cc2)CCCN1O [Compound 57, (R)-4-(4-Chloro-phenoxy)-N-(1-hydroxy-2-oxo-piperidin-3-yl)-benzene-sulfonamide]
- IC50 (MMP-9): 57.9 nM
